Results published in PubChem BioAssay (NCI).
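Method: 48-hour compound exposure of cells in 96-well plates, five concentrations, linear interpolation of endpoints. TGI: concentration producing complete growth inhibition.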

What was measured:
Assay in all cases: NCI-60 cell line screen, 48 h
786-0 renal = system: 786-0 renal
A549 NSCLC = system: A549 NSCLC
ACHN renal = system: ACHN renal
CAKI-1 renal = system: CAKI-1 renal
CCRF-CEM leukemia = system: CCRF-CEM leukemia
COLO 205 colon = system: COLO 205 colon
DLD-1 colon = system: DLD-1 colon
DMS 114 small cell lung = system: DMS 114 small cell lung
EKVX NSCLC = system: EKVX NSCLC
HCC-2998 colon = system: HCC-2998 colon
HCT-116 colon = system: HCT-116 colon
HCT-15 colon = system: HCT-15 colon
HL-60(TB) leukemia = system: HL-60(TB) leukemia
HOP-18 NSCLC = system: HOP-18 NSCLC
HOP-62 NSCLC = system: HOP-62 NSCLC
HOP-92 NSCLC = system: HOP-92 NSCLC
HT29 colon = system: HT29 colon
IGROV1 ovarian = system: IGROV1 ovarian
K-562 leukemia = system: K-562 leukemia
KM12 colon = system: KM12 colon
LOX IMVI melanoma = system: LOX IMVI melanoma
LXFL 529 NSCLC = system: LXFL 529 NSCLC
M14 melanoma = system: M14 melanoma
M19-MEL melanoma = system: M19-MEL melanoma
MALME-3M melanoma = system: MALME-3M melanoma
MOLT-4 leukemia = system: MOLT-4 leukemia
NCI-H226 lung = system: NCI-H226 lung
NCI-H23 lung = system: NCI-H23 lung
NCI-H460 lung = system: NCI-H460 lung
NCI-H522 lung = system: NCI-H522 lung
OVCAR-3 ovarian = system: OVCAR-3 ovarian
OVCAR-4 ovarian = system: OVCAR-4 ovarian
OVCAR-5 ovarian = system: OVCAR-5 ovarian
OVCAR-8 ovarian = system: OVCAR-8 ovarian
RPMI-8226 leukemia = system: RPMI-8226 leukemia
RXF 393 renal = system: RXF 393 renal
RXF-631 renal = system: RXF-631 renal
SF-268 CNS = system: SF-268 CNS
SF-295 CNS = system: SF-295 CNS
SF-539 CNS = system: SF-539 CNS
SK-MEL-2 melanoma = system: SK-MEL-2 melanoma
SK-MEL-28 melanoma = system: SK-MEL-28 melanoma
SK-MEL-5 melanoma = system: SK-MEL-5 melanoma
SK-OV-3 ovarian = system: SK-OV-3 ovarian
SN12C renal = system: SN12C renal
SNB-19 CNS = system: SNB-19 CNS
SNB-78 CNS = system: SNB-78 CNS
SR leukemia = system: SR leukemia
SW-620 colon = system: SW-620 colon
TK-10 renal = system: TK-10 renal
U251 CNS = system: U251 CNS
UACC-257 melanoma = system: UACC-257 melanoma
UACC-62 melanoma = system: UACC-62 melanoma
UO-31 renal = system: UO-31 renal

Measured: TGI

O=C1OC(CC(=O)c2ccccc2Cl)C(Cl)=C1Cl (centres undefined)
> 100 µM: all assays above
